Results from ChEMBL document CHEMBL3132850, “5-Nor carbocyclic nucleosides: unusual nonnucleoside inhibitors of HIV-1 reverse transcriptase” (Medchemcomm, 2013).
Activity calls are given as the source filed them. No cut-off for these calls is given here.

Key:
[1] = Cytotoxicity against human CEM cells after 3 days; type: cell-based; settings: CEM cells (CCRF-CEM)
[2] = target: Human immunodeficiency virus type 1 reverse transcriptase (Human immunodeficiency virus 1, UniProt Q72547); experiment: (§1) Inhibition of HIV1 wild type reverse transcriptase expressed in Escherichia coli BL21 (DE3) using [alpha-32P]dATP after 30 mins by liquid scintillation counting
[3] = system: Human immunodeficiency virus 1; experiment: Antiviral activity against HIV1 3B infected in human CEM cells assessed as reduction of giant cell formation after 4 days by microscopic analysis; type: functional, organism-based; settings: Human immunodeficiency virus 1, 3B, CCRF-CEM, 96 h
Human alphaherpesvirus 3 = experiment: Antiviral activity against Varicella-zoster virus; type: functional, organism-based
Human respirovirus 3 = experiment: Antiviral activity against Parainfluenza virus 3; type: functional, organism-based
[4] = target: Human immunodeficiency virus type 1 reverse transcriptase (Human immunodeficiency virus 1, UniProt Q72547, L100I); experiment: Inhibition of HIV1 reverse transcriptase L100I mutant expressed in Escherichia coli BL21 (DE3) using [alpha-32P]dATP after 30 mins by liquid scintillation counting
Sindbis virus = experiment: Antiviral activity against Sindbis virus; type: functional, organism-based
Feline coronavirus = experiment: Antiviral activity against Feline coronavirus; type: functional, organism-based
[5] = system: Respiratory syncytial virus; experiment: Antiviral activity against Respiratory syncytial virus; type: functional, organism-based
Punta Toro virus = experiment: Antiviral activity against Punta Toro virus; type: functional, organism-based
Vaccinia virus = experiment: Antiviral activity against Vaccinia virus; type: functional, organism-based; settings: Orthopoxvirus vaccinia
Influenza A virus H3N2 = experiment: Antiviral activity against Influenza A virus H3N2; type: functional, organism-based
Human alphaherpesvirus 2 = experiment: Antiviral activity against Herpes simplex virus-2 G; type: functional, organism-based; settings: strain G
[6] = target: Human immunodeficiency virus type 1 reverse transcriptase (Human immunodeficiency virus 1, UniProt Q72547, Y181C); experiment: Inhibition of HIV1 reverse transcriptase Y181C mutant expressed in Escherichia coli BL21 (DE3) using [alpha-32P]dATP after 30 mins by liquid scintillation counting
Influenza B virus = experiment: Antiviral activity against Influenza B virus; type: functional, organism-based
Coxsackievirus B4 = experiment: Antiviral activity against Coxsackievirus B4; type: functional, organism-based
Human alphaherpesvirus 1 = experiment: Antiviral activity against Herpes simplex virus-1 KOS; type: functional, organism-based
[7] = system: Mammalian orthoreovirus 1; experiment: Antiviral activity against Reovirus-1; type: functional, organism-based
[8] = target: Human immunodeficiency virus type 1 reverse transcriptase (Human immunodeficiency virus 1, UniProt Q72547, V106A); experiment: Inhibition of HIV1 reverse transcriptase V106A mutant expressed in Escherichia coli BL21 (DE3) using [alpha-32P]dATP after 30 mins by liquid scintillation counting
[9] = system: Vesicular stomatitis virus; experiment: Antiviral activity against Vesicular stomatitis virus; type: functional, organism-based
[10] = target: Human immunodeficiency virus type 1 reverse transcriptase (Human immunodeficiency virus 1, UniProt Q72547, G190A); experiment: Inhibition of HIV1 reverse transcriptase G190A mutant expressed in Escherichia coli BL21 (DE3) using [alpha-32P]dATP after 30 mins by liquid scintillation counting
Influenza A virus = experiment: Antiviral activity against Influenza A virus H1N1; type: functional, organism-based
[11] = target: Human immunodeficiency virus type 1 reverse transcriptase (Human immunodeficiency virus 1, UniProt Q72547, K103N/Y181C); experiment: Inhibition of HIV1 reverse transcriptase K103N/Y181C mutant expressed in Escherichia coli BL21 (DE3) using [alpha-32P]dATP after 30 mins by liquid scintillation counting
[12] = target: Human immunodeficiency virus type 1 reverse transcriptase (Human immunodeficiency virus 1, UniProt Q72547, K103N); experiment: Inhibition of HIV1 reverse transcriptase K103N mutant expressed in Escherichia coli BL21 (DE3) using [alpha-32P]dATP after 30 mins by liquid scintillation counting
[13] = target: Human immunodeficiency virus type 1 reverse transcriptase (Human immunodeficiency virus 1) (UniProt Q72547); experiment: as §1
[14] = system: Human immunodeficiency virus 1; experiment: Ratio of IC50 for HIV1 wild type reverse transcriptase to IC50 for HIV1 reverse transcriptase L100I mutant
[15] = Solubility of the compound in 10% DMSO up to 50 uM; type: physicochemical

Compound: O=C(OC1C=CC(n2ccc(=O)n(C(=O)c3ccccc3)c2=O)C1)c1ccccc1 (racemic)
- CC50 at 72 h [1]: ≥ 250 µM
- IC50 [2]: > 100 µM
- EC50 [3]: > 50 µM

Compound: Cc1cc(=O)n(C(=O)c2ccccc2)c(=O)n1C1C=CC(OC(=O)c2ccccc2)C1 (racemic)
- CC50 at 72 h [1]: 191 µM
- IC50 [2]: > 100 µM
- EC50 [3]: > 50 µM

Compound: O=C(OC1C=CC(n2ccc(=O)n(Cc3ccccc3)c2=O)C1)c1ccccc1 (racemic)
- Activity (Human alphaherpesvirus 3): inactive
- Activity (Human respirovirus 3): inactive
- CC50 at 72 h [1]: > 25 µM
- IC50 [4]: 1200 nM
- Activity (Sindbis virus): inactive
- Activity (Feline coronavirus): inactive
- Activity [5]: inactive
- Activity (Punta Toro virus): inactive
- Activity (Vaccinia virus): inactive
- IC50 [2]: 13.4 µM
- Activity (Influenza A virus H3N2): inactive
- Activity (Human alphaherpesvirus 2): inactive
- IC50 [6]: > 50 µM
- Activity (Influenza B virus): inactive
- Activity (Coxsackievirus B4): inactive
- EC50 [3]: > 10 µM
- Activity (Human alphaherpesvirus 1): inactive
- Activity [7]: inactive
- IC50 [8]: > 50 µM
- Activity [9]: inactive
- IC50 [10]: > 50 µM
- Activity (Influenza A virus): inactive
- IC50 [11]: > 50 µM
- IC50 [12]: 33.6 µM

Compound: Cc1ccc(Cn2c(=O)ccn(C3C=CC(OC(=O)c4ccccc4)C3)c2=O)cc1 (racemic)
- Activity (Human alphaherpesvirus 3): inactive
- Activity (Human respirovirus 3): inactive
- CC50 at 72 h [1]: > 25 µM
- IC50 [4]: 2400 nM
- Activity (Sindbis virus): inactive
- Activity (Feline coronavirus): inactive
- Activity [5]: inactive
- Activity (Punta Toro virus): inactive
- Activity (Vaccinia virus): inactive
- IC50 [2]: 18.7 µM
- Activity (Influenza A virus H3N2): inactive
- Activity (Human alphaherpesvirus 2): inactive
- IC50 [6]: > 50 µM
- Activity (Influenza B virus): inactive
- Activity (Coxsackievirus B4): inactive
- EC50 [3]: > 10 µM
- Activity (Human alphaherpesvirus 1): inactive
- Activity [7]: inactive
- IC50 [8]: > 50 µM
- Activity [9]: inactive
- IC50 [10]: > 50 µM
- Activity (Influenza A virus): inactive
- IC50 [11]: > 50 µM
- IC50 [12]: 55.4 µM

Compound: Cc1ccc(Cn2c(=O)ccn(C3C=CC(OC(=O)c4ccccc4)C3)c2=O)c(C)c1 (racemic)
- CC50 at 72 h [1]: 31 µM
- IC50 [2]: > 50 µM
- EC50 [3]: > 50 µM

Compound: Cc1cc(C)cc(Cn2c(=O)ccn(C3C=CC(OC(=O)c4ccccc4)C3)c2=O)c1 (racemic)
- Activity (Human alphaherpesvirus 3): inactive
- Activity (Human respirovirus 3): inactive
- CC50 at 72 h [1]: 40 µM
- IC50 [4]: 11100 nM
- Activity (Sindbis virus): inactive
- Activity (Feline coronavirus): inactive
- Activity [5]: inactive
- Activity (Punta Toro virus): inactive
- Activity (Vaccinia virus): inactive
- inhibition [13]: Dose-dependent effect
- IC50 [2]: > 50 µM
- Activity (Influenza A virus H3N2): inactive
- Activity (Human alphaherpesvirus 2): inactive
- Ratio IC50 [14]: 10
- IC50 [6]: > 50 µM
- Activity (Influenza B virus): inactive
- Activity (Coxsackievirus B4): inactive
- EC50 [3]: > 10 µM
- Activity (Human alphaherpesvirus 1): inactive
- Activity [7]: inactive
- solubility [15]: soluble
- IC50 [8]: > 50 µM
- Activity [9]: inactive
- IC50 [10]: > 50 µM
- Activity (Influenza A virus): inactive
- IC50 [11]: > 50 µM
- IC50 [12]: > 50 µM

Compound: O=C(OC1C=CC(n2ccc(=O)n(Cc3cc(F)cc(F)c3)c2=O)C1)c1ccccc1 (racemic)
- CC50 at 72 h [1]: 32 µM
- IC50 [2]: > 50 µM
- EC50 [3]: > 10 µM

Compound: Cc1cc(=O)n(Cc2ccccc2)c(=O)n1C1C=CC(OC(=O)c2ccccc2)C1 (racemic)
- CC50 at 72 h [1]: 34 µM
- IC50 [2]: > 50 µM
- EC50 [3]: > 10 µM

Compound: Cc1ccc(Cn2c(=O)cc(C)n(C3C=CC(OC(=O)c4ccccc4)C3)c2=O)cc1 (racemic)
- CC50 at 72 h [1]: 20 µM
- IC50 [2]: > 50 µM
- EC50 [3]: > 10 µM

Compound: Cc1cc(C)cc(Cn2c(=O)cc(C)n(C3C=CC(OC(=O)c4ccccc4)C3)c2=O)c1 (racemic)
- CC50 at 72 h [1]: 25 µM
- IC50 [2]: > 50 µM
- EC50 [3]: > 10 µM

Compound: O=C(OC1C=CC(n2ccc(=O)[nH]c2=O)C1)c1ccccc1 (racemic)
- CC50 at 72 h [1]: > 250 µM
- IC50 [2]: > 100 µM
- EC50 [3]: > 250 µM

Compound: Cc1cc(=O)[nH]c(=O)n1C1C=CC(OC(=O)c2ccccc2)C1 (racemic)
- CC50 at 72 h [1]: > 250 µM
- IC50 [2]: > 100 µM
- EC50 [3]: > 50 µM

Compound: O=c1ccn(C2C=CC(O)C2)c(=O)n1Cc1ccccc1 (racemic)
- CC50 at 72 h [1]: > 250 µM
- IC50 [2]: > 100 µM

Compound: CC(C)Nc1cccnc1N1CCN(C(=O)c2cc3cc(NS(C)(=O)=O)ccc3[nH]2)CC1 [DELAVIRDINE]
- CC50 at 72 h [1]: > 25 µM
- EC50 [3]: 0.11 µM

Compound: Cc1ccnc2c1NC(=O)c1cccnc1N2C1CC1 [NEVIRAPINE]
- CC50 at 72 h [1]: > 25 µM
- EC50 [3]: 0.024 µM
